# Read-outs that look alike come from different tables or passages of the source. Where a SMILES comes first, the peptide text is derived from it.
# Legend:
# [1] = system: BALB/c 3T3 murine fibroblast cell line; experiment: Cytotoxicity, neutral red uptake assay; format: cell-based; conditions: 48 h; for concentrations at which cytotoxic / reduced cell viability: Balb/c 3T3, neutral red uptake, tested 3.9–500 μg/mL
# Source text: (§1) The BALB/c 3T3 murine fibroblast cell line was obtained from ATCC (American Type Culture Collection, Manassas, VA, USA). Primary human dermal fibroblasts were isolated by enzymatic digestion from skin biopsies in the Laboratory of Bioanalytical and Biodosimetry Methods, University of Latvia, in accordance with the approval of the Committee of Research Ethics of the Institute of Cardiology and Regenerative Medicine, University of Latvia. Cells were propagated in DMEM medium (Sigma, Irvine, UK), supplemented with 1% penicillin (100 U/mL)–streptomycin (100 μg/mL), and 10% calf serum (Sigma, St. Louis, MO, USA) for Balb/c 3T3 cell line and fetal bovine serum (Sigma, St. Louis, MO, USA) for primary dermal fibroblasts. All cultivations were performed in a humidified 5% CO2 atmosphere at 37 °C.
# (§2) The cytotoxicity of the peptides was tested in the BALB/c3T3 cell line and primary dermal fibroblasts by the neutral red (NR) uptake assay. Cells were seeded in 96-well plates at a density of 5 × 10^3 cells per well. After 24 h of incubation, peptides in a concentration range of 3.9 to 500 μg/mL were added. Dilutions were made in a cell cultivation medium. Cultivation in the presence of extracts was performed for 48 h. Afterwards, plates were washed with phosphate-buffered saline (PBS) (Sigma, Irvine, UK), and a 25 µg/mL NR solution (Sigma, Irvine, UK) diluted in 5%-fetal-calf-serum-containing-media was added. After 3 h, incubation in a humidified 5% CO2 atmosphere at 37 °C, the plate was washed with PBS, and the NR taken up by viable cells was extracted using desorbing fixative (50% ethanol/1% acetic acid/49% water). Absorbance at 540 nm was measured using a microplate reader Tecan Infinite® 200 PRO (Tecan Group Ltd., Mannedorf, Switzerland). Cytotoxicity was expressed as a concentration-dependent reduction in the uptake of NR, compared to the untreated controls and calculated using the following equation: Cell viability (%)=Abs540nm(treatment)−Abs540nm(background)/Abs540nm(untreated control)−Abs540nm(background)×100%
# HaCaT keratinocytes = conditions: cited from earlier work
# K. pneumonia = experiment: microbe, parasite or virus in culture; format: cell-based, Klebsiella pneumoniae
# Experimental: (§3) Quantification of the antimicrobial resistance against various AMPs was carried out by measuring the bacterial growth in the presence of peptides at serial dilutes in 96 well plates in a microplate (96-well plate) reader Infinite® M200 PRO Multimode Microplate Reader (Tecan, Maennedorf, Switzerland) according to our recent reports. All bacterial strains were incubated at 32 °C for 13–18 h at 200 rpm. Optical density measurements (λ = 550 nm) were taken automatically at 10 min intervals. Antimicrobial resistance activity was quantified as the minimum inhibitory concentration (MIC)—the lowest concentration of a peptide which prevents growth of bacterial cells.
# C. acnes [2] = experiment: microbe, parasite or virus in culture; format: cell-based, Cutibacterium acnes
# Experimental: as §3
# [3] = system: fresh human blood (red blood cell lysis); experiment: Hemolysis assay; format: cell-based
# Experimental: A hemolysis test was performed to assess the hemocompatibility of the peptides. Blood from healthy donors was collected in Monovette vacutainers containing Ethylenediamine tetra-acetic acid (EDTA). Blood was diluted with 0.9% sodium chloride solution supplemented with 10 U/mL heparin (4:5 ratio by volume). Peptides were added to 1.5 mL vials containing fresh 0.49 mL PBS and incubated at 37 °C and 5% CO2 for 30 min, and 10 μL of diluted blood was added to each vial and incubated at 37 °C and 5% CO2 for 1 h. PBS was used as a negative control and deionized water was used as a positive control. After incubation tubes were centrifuged at 3000 rpm for 5 min, the supernatants were collected, and the absorbance was measured at a wavelength of 545 nm in a microplate reader Tecan Infinite® 200 PRO (Tecan Group Ltd., Mannedorf, Switzerland).
# The hemolytic ratio (HR) was calculated by the following equation: HR (%)=(Abs(sample)−Abs(negative control))/(Abs (positive control−Abs(negative control))×100%
# P. aeruginosa = experiment: microbe, parasite or virus in culture; format: cell-based, Pseudomonas aeruginosa
# Experimental: as §3
# E. faecium = experiment: microbe, parasite or virus in culture; format: cell-based, Enterococcus faecium
# Experimental: as §3
# S. aureus = experiment: microbe, parasite or virus in culture; format: cell-based, Staphylococcus aureus
# Experimental: as §3
# [4] = system: primary human dermal fibroblasts; format: cell-based; conditions: 48 h
# Source text: as §1, §2
# E. coli = experiment: microbe, parasite or virus in culture; format: cell-based, Escherichia coli
# Experimental: as §3
# C. acnes [5] = conditions: cited from earlier work
# Experimental: Five AMPs were examined earlier for treatment of individual bacteria related to skin and soft tissue infections, while none of them were tested against all ESCAPE pathogens simultaneously. Peptide R1 is a direct derivate of earlier published RP551 [47], with the replacement of non-proteinogenic amino acid, ornithine (O) by lysine (K) at the positions 3,8,11, and 14.
# [6] = system: IL-10 secretion in LPS stimulated PBMNCs; experiment: IL-10 secretion by PBMNCs, ELISA; format: cell-based, human; conditions: LPS and 20 μg/mL peptide, 24 h
# Experimental: (§4) The effect of the peptides was evaluated in human peripheral blood mononuclear cells (PBMNCs). Blood from healthy donors was collected in Monovette vacutainers containing EDTA. Blood was collected in accordance with the approval of the Committee of Research Ethics of the Institute of Cardiology and Regenerative Medicine, University of Latvia. Blood was diluted (1:2 ratio by volume) with 0.9% sodium chloride solution supplemented with 10 U/mL heparin and mononuclear cell fraction isolated by gradient centrifugation. Diluted blood samples were layered on Ficoll-Paque solution in ratio 2:1 (GE Healthcare, Chicago, IL, USA), and density gradient centrifugation was performed at 800× g for 20 min at room temperature in a swing-out centrifuge. Mononuclear cells containing buffy coats were aspirated and washed twice with phosphate-buffered saline and centrifuged at 600× g for 20 min at room temperature. The cell pellet was suspended in DMEM medium (Sigma, D6046, Irvine, UK) supplemented with 1% penicillin (100 U/mL)–streptomycin (100 μg/mL) and 10% fetal bovine serum (Sigma, St. Louis, MO, USA), and cells were seeded on 24-well plates at a density of 5 × 10^5 cells per well and incubated at 37 °C, 5% CO2. […]
# (§5) Concentrations of TNF-α and IL-10 secreted in cultivation media by PBMNCs were determined using enzyme-linked immunosorbent assay (ELISA). […]
# [7] = system: human peripheral blood mononuclear cells (PBMNCs); experiment: Viability of PBMNCs, MTT reduction assay; format: cell-based; conditions: 24 h, 4 and 20 μg/mL with or without 5 µg/mL LPS, n = 3
# Experimental: as §4, with “temperature.” for “temperature. The cell pellet was suspended in DMEM medium (Sigma, D6046, Irvine, UK) supplemented with 1% penicillin (100 U/mL)–streptomycin (100 μg/mL) and 10% fetal bovine serum (Sigma, St. Louis, MO, USA), and cells were seeded on 24-well plates at a density of 5 × 10^5 cells per well and incubated at 37 °C, 5% CO2.”
# Viability of PBMNCs after incubation with peptides was evaluated using MTT reduction assay. […] Absorption was measured at 570 nm using Tecan Infinite® 200 PRO (Tecan Group Ltd., Mannedorf, Switzerland).
# Blank wells without cells were used for the background measurement. Proliferation relative to control was calculated using the equation below. […]
# [8] = system: TNF-α secretion in LPS stimulated PBMNCs; experiment: TNF-α secretion by PBMNCs, ELISA; format: cell-based, human; conditions: 24 h
# Experimental: as §4, §5
SMILES,concentrations at which cytotoxic / reduced cell viability [1],MIC K. pneumonia (K. pneumonia) [µg/mL],MIC C. acnes (C. acnes [2]) [µg/mL],"IC50, viability of Balb/c 3T3 cells [1] [µg/mL]",MIC P. aeruginosa (P. aeruginosa) [µg/mL],MIC E. faecium (E. faecium) [µg/mL],MIC S. aureus (S. aureus) [µg/mL],"IC50, viability of human primary dermal fibroblasts [4] [µg/mL]",other results
"CC(C)[C@H](N)C(=O)N[C@@H](CCCCN)C(=O)N[C@@H](CCCNC(=N)N)C(=O)N[C@@H](Cc1c[nH]c2ccccc12)C(=O)N[C@@H](CCCCN)C(=O)N[C@@H](CCCCN)C(=O)N[C@@H](Cc1c[nH]c2ccccc12)C(=O)N[C@@H](Cc1c[nH]c2ccccc12)C(=O)N[C@@H](CCCNC(=N)N)C(=O)N[C@@H](CCCCN)C(=O)N[C@@H](Cc1c[nH]c2ccccc12)C(=O)N[C@@H](CCCCN)C(=O)N[C@@H](CCCCN)C(=O)N[C@@H](Cc1c[nH]c2ccccc12)C(=O)N[C@H](C(=O)O)C(C)C [LZ1, reference compound] (H-VKRWKKWWRKWKKWV-OH)",62500 ng/mL,–,–,–,–,–,–,–,concentrations without cytotoxic effect (HaCaT keratinocytes): up to 200 μg/mL
CC(C)C[C@H](NC(=O)[C@H](C)NC(=O)[C@H](CCCCN)NC(=O)[C@H](CC(C)C)NC(=O)[C@H](C)NC(=O)[C@H](CCCCN)NC(=O)[C@H](CC(C)C)NC(=O)[C@H](CC(C)C)NC(=O)[C@H](C)NC(=O)[C@H](CCCCN)NC(=O)[C@H](CC(C)C)NC(=O)[C@H](C)NC(=O)[C@H](CCCCN)NC(=O)[C@H](C)NC(=O)[C@@H](N)Cc1ccccc1)C(=O)O [Oligo10] (H-FAKALKALLKALKAL-OH),–,63.0,2.0,218.21,63.0,16.0,4.0,241.54,concentration with mild hemolytic activity [3]: 16000 ng/mL; MIC E. coli (E. coli): 16.0 µg/mL
CC[C@H](C)[C@H](NC(=O)[C@H](CCCCN)NC(=O)[C@@H](N)CCCCN)C(=O)N[C@@H](C)C(=O)N[C@@H](CCCCN)C(=O)N[C@@H](CCCCN)C(=O)N[C@@H](Cc1ccccc1)C(=O)N[C@@H](Cc1c[nH]c2ccccc12)C(=O)N[C@@H](CCCCN)C(=O)N[C@@H](CCCCN)C(=O)N[C@@H](Cc1ccccc1)C(=O)N[C@@H](Cc1c[nH]c2ccccc12)C(=O)N[C@@H](CCCCN)C(=O)N[C@@H](Cc1ccccc1)C(=O)N[C@@H](Cc1c[nH]c2ccccc12)C(=O)N[C@@H](CCCCN)C(=O)N[C@H](C(=O)N[C@@H](Cc1ccccc1)C(=O)N[C@@H](CCCCN)C(=O)N[C@@H](CCCCN)C(=O)O)[C@@H](C)CC [Peptide R10] (H-KKIAKKFWKKFWKFWKIFKK-OH),–,8.0,0.5,86.99,2.0,4.0,4.0,38.19,Therapeutic Index K. pneumonia (K. pneumonia): 4.77; Therapeutic Index C. acnes (C. acnes [2]): 76.38; hemolytic activity [3]: strong hemolytic activity; Therapeutic Index P. aeruginosa (P. aeruginosa): 19.1; Therapeutic Index E. faecium (E. faecium): 9.55; Therapeutic Index S. aureus (S. aureus): 9.55; Therapeutic Index E. coli (E. coli): 19.1
CC[C@H](C)[C@H](NC(=O)CNC(=O)[C@H](CCCCN)NC(=O)[C@H](Cc1ccc(O)cc1)NC(=O)[C@H](CS)NC(=O)[C@@H](NC(=O)[C@H](CCCCN)NC(=O)[C@H](Cc1ccccc1)NC(=O)[C@H](CS)NC(=O)[C@H](Cc1c[nH]c2ccccc12)NC(=O)[C@@H](N)CCCNC(=N)N)C(C)C)C(=O)N[C@@H](CS)C(=O)N[C@@H](Cc1ccc(O)cc1)C(=O)N[C@@H](CCCCN)C(=O)N[C@@H](CCCCN)C(=O)N[C@@H](CS)C(=O)N[C@@H](CCCCN)C(=O)O [RP556] (H-RWCFKVCYKGICYKKCK-OH; N-terminus and C-terminus assumed),only at the highest concentration,–,–,–,–,–,–,–,"MIC P. aeruginosa (P. aeruginosa; 96-well plate, serial dilutions, 32 °C, 13–18 h, 200 rpm, OD 550 nm): 2 µg/mL; antimicrobial activity against C. acnes (C. acnes [5]): 2 to 4 µg/mL; increase of IL-10 secretion compared to LPS alone [6]: 35.56%; reduction of PBMNC viability [7]: ≤ 17.5%; increase of TNF-α secretion [8]: below 18.3%"

# — publication PMC10044245, “Comparative Evaluation of Existing and Rationally Designed Novel Antimicrobial Peptides for Treatment of Skin and Soft Tissue Infections” (Antibiotics, 2023)
